{"source": "ChEMBL document CHEMBL1821624", "about": "“Synthesis, evaluation against Leishmania amazonensis and cytotoxicity assays in macrophages of sixteen new congeners Morita-Baylis-Hillman adducts” (Eur J Med Chem, 2011)", "key": {"[1]": {"experiment": "Selectivity index, ratio of CC50 for Swiss mouse peritoneal macrophages to IC50 for Leishmania amazonensis IFLA/BR/67/PH8 promastigotes", "format": "functional"}, "Leishmania amazonensis [2]": {"tested_on": "Leishmania amazonensis", "experiment": "Antileishmanial activity against Leishmania amazonensis IFLA/BR/67/PH8 promastigotes […] assessed as inhibition of parasite growth after 72 hrs by MTT assay", "format": "functional, organism-based", "conditions": "IFLA/BR/67/PH8, 72 h"}, "[3]": {"experiment": "Cytotoxicity against Swiss mouse peritoneal macrophages after 24 hrs by MTT assay", "format": "cell-based, Peritoneal macrophage cell"}, "Leishmania amazonensis [4]": {"tested_on": "Leishmania amazonensis", "experiment": "Antileishmanial activity against Leishmania amazonensis", "format": "functional, organism-based"}}, "data": [{"smiles": "C=C(C(=O)OCCO)C(O)c1cccc([N+](=O)[O-])c1", "note": "(racemic)", "values": [{"measurement": "Ratio CC50/IC50", "setting": "[1]", "result": 1.06}, {"measurement": "IC50", "setting": "Leishmania amazonensis [2]", "result": 64.6, "unit": "µM"}, {"measurement": "CC50 at 24 h", "setting": "[3]", "result": 69, "unit": "µM"}]}, {"smiles": "C=C(C(=O)OCCO)C(O)c1ccc([N+](=O)[O-])cc1", "note": "(racemic)", "values": [{"measurement": "Ratio CC50/IC50", "setting": "[1]", "result": 0.88}, {"measurement": "IC50", "setting": "Leishmania amazonensis [2]", "result": 53, "unit": "µM"}, {"measurement": "CC50 at 24 h", "setting": "[3]", "result": 46.9, "unit": "µM"}]}, {"smiles": "C=C(C(=O)OCCO)C(O)c1ccccn1", "note": "(racemic)", "values": [{"measurement": "Ratio CC50/IC50", "setting": "[1]", "result": 2.81}, {"measurement": "IC50", "setting": "Leishmania amazonensis [2]", "result": 266, "unit": "µM"}, {"measurement": "CC50 at 24 h", "setting": "[3]", "result": 749, "unit": "µM"}]}, {"smiles": "C=C(C(=O)OCCO)C(O)c1ccc(Br)cc1", "note": "(racemic)", "values": [{"measurement": "Ratio CC50/IC50", "setting": "[1]", "result": 2.77}, {"measurement": "IC50", "setting": "Leishmania amazonensis [2]", "result": 56.7, "unit": "µM"}, {"measurement": "CC50 at 24 h", "setting": "[3]", "result": 157, "unit": "µM"}]}, {"smiles": "C=C(C(=O)OC)C(O)c1ccccc1[N+](=O)[O-]", "note": "(centres undefined)", "values": [{"measurement": "IC50", "setting": "Leishmania amazonensis [4]", "result": 62, "unit": "µM"}]}, {"smiles": "C=C(C(=O)OCCC)C(O)c1ccccn1", "note": "(racemic)", "values": [{"measurement": "Ratio CC50/IC50", "setting": "[1]", "result": 3.68}, {"measurement": "IC50", "setting": "Leishmania amazonensis [2]", "result": 194, "unit": "µM"}, {"measurement": "CC50 at 24 h", "setting": "[3]", "result": 715, "unit": "µM"}]}, {"smiles": "C=C(C(=O)OCCO)C(O)c1ccncc1", "note": "(racemic)", "values": [{"measurement": "Ratio CC50/IC50", "setting": "[1]", "result": 1.2}, {"measurement": "IC50", "setting": "Leishmania amazonensis [2]", "result": 382, "unit": "µM"}, {"measurement": "CC50 at 24 h", "setting": "[3]", "result": 458, "unit": "µM"}]}, {"smiles": "C=C(C(=O)OCCC)C(O)c1ccc([N+](=O)[O-])cc1", "note": "(racemic)", "values": [{"measurement": "Ratio CC50/IC50", "setting": "[1]", "result": 2.33}, {"measurement": "IC50", "setting": "Leishmania amazonensis [2]", "result": 52, "unit": "µM"}, {"measurement": "CC50 at 24 h", "setting": "[3]", "result": 122, "unit": "µM"}]}, {"smiles": "C=C(C(=O)OCCC)C(O)c1ccc(Br)cc1", "note": "(racemic)", "values": [{"measurement": "Ratio CC50/IC50", "setting": "[1]", "result": 1.67}, {"measurement": "IC50", "setting": "Leishmania amazonensis [2]", "result": 74.7, "unit": "µM"}, {"measurement": "CC50 at 24 h", "setting": "[3]", "result": 125, "unit": "µM"}]}, {"smiles": "C=C(C(=O)OCCC)C(O)c1cccc([N+](=O)[O-])c1", "note": "(racemic)", "values": [{"measurement": "Ratio CC50/IC50", "setting": "[1]", "result": 1.57}, {"measurement": "IC50", "setting": "Leishmania amazonensis [2]", "result": 72.2, "unit": "µM"}, {"measurement": "CC50 at 24 h", "setting": "[3]", "result": 114, "unit": "µM"}]}, {"smiles": "C=C(C(=O)OCCC)C(O)c1ccccc1[N+](=O)[O-]", "note": "(racemic)", "values": [{"measurement": "Ratio CC50/IC50", "setting": "[1]", "result": 4.75}, {"measurement": "IC50", "setting": "Leishmania amazonensis [2]", "result": 28.4, "unit": "µM"}, {"measurement": "CC50 at 24 h", "setting": "[3]", "result": 135, "unit": "µM"}]}, {"smiles": "C=C(C(=O)OCCC)C(O)c1ccc2ccccc2c1", "note": "(racemic)", "values": [{"measurement": "Ratio CC50/IC50", "setting": "[1]", "result": 2.59}, {"measurement": "IC50", "setting": "Leishmania amazonensis [2]", "result": 54.5, "unit": "µM"}, {"measurement": "CC50 at 24 h", "setting": "[3]", "result": 149, "unit": "µM"}]}, {"smiles": "C=C(C(=O)OCCO)C(O)c1ccccc1[N+](=O)[O-]", "note": "(racemic)", "values": [{"measurement": "Ratio CC50/IC50", "setting": "[1]", "result": 5.43}, {"measurement": "IC50", "setting": "Leishmania amazonensis [2]", "result": 20.5, "unit": "µM"}, {"measurement": "CC50 at 24 h", "setting": "[3]", "result": 112, "unit": "µM"}]}, {"smiles": "C=C(C(=O)OCCC)C(O)c1ccncc1", "note": "(racemic)", "values": [{"measurement": "Ratio CC50/IC50", "setting": "[1]", "result": 1.83}, {"measurement": "IC50", "setting": "Leishmania amazonensis [2]", "result": 149, "unit": "µM"}, {"measurement": "CC50 at 24 h", "setting": "[3]", "result": 272, "unit": "µM"}]}, {"smiles": "C=C(C(=O)OCCO)C(O)c1cccnc1", "note": "(racemic)", "values": [{"measurement": "Ratio CC50/IC50", "setting": "[1]", "result": 1.29}, {"measurement": "IC50", "setting": "Leishmania amazonensis [2]", "result": 324, "unit": "µM"}, {"measurement": "CC50 at 24 h", "setting": "[3]", "result": 418, "unit": "µM"}]}, {"smiles": "C=C(C(=O)OCCO)C(O)c1ccc2ccccc2c1", "note": "(racemic)", "values": [{"measurement": "Ratio CC50/IC50", "setting": "[1]", "result": 2.24}, {"measurement": "IC50", "setting": "Leishmania amazonensis [2]", "result": 52.5, "unit": "µM"}, {"measurement": "CC50 at 24 h", "setting": "[3]", "result": 118, "unit": "µM"}]}, {"smiles": "C=C(C(=O)OCCC)C(O)c1cccnc1", "note": "(racemic)", "values": [{"measurement": "Ratio CC50/IC50", "setting": "[1]", "result": 1.81}, {"measurement": "IC50", "setting": "Leishmania amazonensis [2]", "result": 211, "unit": "µM"}, {"measurement": "CC50 at 24 h", "setting": "[3]", "result": 384, "unit": "µM"}]}]}
